# Key:
# [1] = tested on: PC-3 cells; assay: Cell spreading assay, PC-3 cells; format: cell-based, human; details: for ability of cells to spread (percentage of cells with Cyto minus NucArea above threshold): PC-3 on type I collagen, 3 hours
# Experimental: (§1) Compounds that interfere with metastasis of prostate carcinoma cells were screened as follows. PC3 human prostate carcinoma cells (ATCC # CRL 1435) were cultured in media with appropriate stimulants and passaged to collagen coated 96 well plates. Similar experiments were also conducted with MDA-MB231, a breast carcinoma cell line (ATCC # HTB-26), A549 human lung carcinoma cell line (ATCC # CCL 185), and primary HMVEC-d human skin microvessel endothelial cells (Clonetics Walkersville, Md.
# (§2) Conditions in which cell spreading could be augmented or diminished were tested in various ways, including plating the cells on collagen coated (various concentrations) or collagen free substrates, varying the time of cell spreading prior to analysis, and plating cells in the presence of chemical modulators. After two hours, cells were fixed and stained with ALEXA™ 488 phalloidin (Molecular Probes) and Hoechst 33342 as per the protocol for cellular hypertrophy. The size of cells under these various conditions, as measured by cytoplasmic staining, was distinguished from background levels. The number of cells per field was determined by measuring the number of nuclei stained with the Hoechst DNA dye. The area per cell was found by dividing the cytoplasmic area (phalloidin image) by the cell number (Hoechst image).
# [2] = tested on: A549 cells; assay: Cell spreading assay, A549 cells; format: cell-based, human; details: for inhibition of cell spreading: 10 μM; for stimulation of spreading by matrix protein / completeness of cell spreading on matrix protein: A549 cells plated on matrix protein
# Experimental: as §1, §2
# (§3) To illustrate how cell spreading is a unique functional event that can be distinguished from attachment and motility by drug effects, we performed the following experiments. A549 cancer cells were allowed to spread on a collagen I coated substrate for 3 hours, and then were fixed and stained with rhodamine phalloidin. The number of cells that spread beyond a selectable threshold area was measured as a function of increasing concentrations of cytochalasin D. While cells normally spread to a size much larger than the nucleus in this time interval, cytochalasin D maintained cells in a tight rounded morphology not much larger than the nucleus. The movement of A549 cells was measured at 18 hours after plating. At a concentration of 0.5 μM, cytochalasin D prevented spreading of 80% of cells but permitted movement of 70% of cells. Cytochalasin had no effect on adhesion to the substrate as measured by the number of cells that remain attached after a 3 hour incubation.
# (§4) The spreading of cells is a function of the ligands and cell receptors that are employed, and plating cells on different immobilized ligands will selectively bind to matched cell surface receptors. A549 cells were plated on various matrix proteins and allowed to spread for 3 and for 5 hours. […] Thus ligand-dependent differences in the kinetics of cell spreading can be measured. In addition, strong differences in the activation of spreading were seen on different matrices. […] In contrast to spreading, cell motility presented a very different biological profile of these matrix proteins. […] In further experiments, cells were allowed to spread in the presence of various kinase inhibitors and the effect on cell spreading was determined.
# [3] = tested on: A549 cells; assay: Cell movement (motility) of A549 cells; format: cell-based, human; details: for inhibition of cell movement (motility): 10 μM; for stimulation of movement by matrix protein: A549 cells plated on matrix protein
# Experimental: as §3, §4
# [4] = tested on: SNB-19 cells; assay: High-content screen of drug-induced apoptosis, SNB-19 cells; format: cell-based
# Experimental: Cell preparation. The cells chosen for this study were mouse connective tissue fibroblasts (L-929; ATCC CCL-1) and a highly invasive glioblastoma cell line (SNB-19; ATCC CRL-2219) (Welch et al., In Vitro Cell. Dev. Biol. 31:610, 1995). The day before treatment with an apoptosis inducing drug, 3500 cells were placed into each well of a 96-well plate and incubated overnight at 37° C. in a humidified 5% CO2 atmosphere. The following day, the culture medium was removed from each well and replaced with fresh medium containing various concentrations of paclitaxel (0-50 μM) from a 20 mM stock made in DMSO. The maximal concentration of DMSO used in these experiments was 0.25%. The cells were then incubated for 26 h as above. At the end of the paclitaxel treatment period, each well received fresh medium containing 750 nM MitoTracker Red (Molecular Probes; Eugene, Oreg.) and 3 μg/ml Hoechst 33342 DNA-binding dye (Molecular Probes) and was incubated as above for 20 min. […] The fluorescence signals from plates stored this way were stable for at least two weeks after preparation. As in the nuclear translocation assay, fluorescence reagents can be designed to convert this assay into a live cell high-content screen.
# Image acquisition and analysis on the ArrayScan System. The fluorescence intensity of intracellular MitoTracker Red, Hoechst 33342, and Bodipy FL phallacidin was measured with the cell screening system as described supra. […]
# Calculations and output. A total of 50-250 cells were measured per image field. For each field of cells, the following calculations were performed: (1) The average nuclear area (μm^2) was calculated by dividing the total nuclear area in a field by the number of nuclei detected. (2) The average nuclear perimeter (μm) was calculated by dividing the sum of the perimeters of all nuclei in a field by the number of nuclei detected in that field. […] (3) The average nuclear brightness was calculated by dividing the integrated intensity of the entire field of nuclei by the number of nuclei in that field. […]
# [5] = tested on: L-929 cells; assay: High-content screen of drug-induced apoptosis, L-929 cells; format: cell-based, mouse
# Experimental: Cell preparation. The cells chosen for this study were mouse connective tissue fibroblasts (L-929; ATCC CCL-1) and a highly invasive glioblastoma cell line (SNB-19; ATCC CRL-2219) (Welch et al., In Vitro Cell. Dev. Biol. 31:610, 1995). The day before treatment with an apoptosis inducing drug, 3500 cells were placed into each well of a 96-well plate and incubated overnight at 37° C. in a humidified 5% CO2 atmosphere. The following day, the culture medium was removed from each well and replaced with fresh medium containing various concentrations of paclitaxel (0-50 μM) from a 20 mM stock made in DMSO. The maximal concentration of DMSO used in these experiments was 0.25%. The cells were then incubated for 26 h as above. At the end of the paclitaxel treatment period, each well received fresh medium containing 750 nM MitoTracker Red (Molecular Probes; Eugene, Oreg.) and 3 μg/ml Hoechst 33342 DNA-binding dye (Molecular Probes) and was incubated as above for 20 min. Each well on the plate was then washed with HBSS and fixed with 3.7% formaldehyde in HBSS for 15 min at room temperature. The formaldehyde was washed out with HBSS and the cells were permeabilized for 90 s with 0.5% (v/v) Triton X-100, washed with HBSS, incubated with 2 U ml^−1 Bodipy FL phallacidin (Molecular Probes) for 30 min, and washed with HBSS. The wells on the plate were then filled with 200 μl HBSS, sealed, and the plate stored at 4° C. if necessary. The fluorescence signals from plates stored this way were stable for at least two weeks after preparation. As in the nuclear translocation assay, fluorescence reagents can be designed to convert this assay into a live cell high-content screen.
# Image acquisition and analysis on the ArrayScan System. The fluorescence intensity of intracellular MitoTracker Red, Hoechst 33342, and Bodipy FL phallacidin was measured with the cell screening system as described supra. Morphometric data from each pair of images obtained from each well was also obtained to detect each object in the image field (e.g., cells and nuclei), and to calculate its size, shape, and integrated intensity.
# Calculations and output. A total of 50-250 cells were measured per image field. For each field of cells, the following calculations were performed: (1) The average nuclear area (μm^2) was calculated by dividing the total nuclear area in a field by the number of nuclei detected. (2) The average nuclear perimeter (μm) was calculated by dividing the sum of the perimeters of all nuclei in a field by the number of nuclei detected in that field. Highly convoluted apoptotic nuclei had the largest nuclear perimeter values. (3) The average nuclear brightness was calculated by dividing the integrated intensity of the entire field of nuclei by the number of nuclei in that field. An increase in nuclear brightness was correlated with increased DNA content. (4) The average cellular brightness was calculated by dividing the integrated intensity of an entire field of cells stained with MitoTracker dye by the number of nuclei in that field. Because the amount of MitoTracker dye that accumulates within the mitochondria is proportional to the mitochondrial potential, an increase in the average cell brightness is consistent with an increase in mitochondrial potential. (5) The average cellular brightness was also calculated by dividing the integrated intensity of an entire field of cells stained with Bodipy FL phallacidin dye by the number of nuclei in that field. […]
# [6] = tested on: NF-KB transcription factor; assay: Cytoplasm to nucleus translocation screen of NF-KB (NucCyt Difference); format: cell-based, human; details: titrated in the presence of IL-1α
# Experimental: The distribution of the transcription factor is determined by labeling the nuclei with a DNA specific fluorophore like […] and the transcription factor with a specific fluorescent antibody. After autofocusing on the Hoechst labeled nuclei, an image of the nuclei is acquired in the cell-based screening system and used to create a mask by one of several optional thresholding methods, as described supra. The morphological descriptors of the regions defined by the mask are compared with the user defined parameters and valid nuclear masks are identified and used with the following method to extract transcription factor distributions. Each valid nuclear mask is eroded to define a slightly smaller nuclear region. The original nuclear mask is then dilated in two steps to define a ring shaped region around the nucleus, which represents a cytoplasmic region. The average antibody fluorescence in each of these two regions is determined, and the difference between these averages is defined as the NucCyt Difference. […] Using these two sampling regions, data on nuclear translocation can be automatically analyzed by the cell-based screening system on a cell by cell basis. […]
compound,measurement,setting,value
C[S+](C)[O-] [DMSO],ability of cells to spread (percentage of cells with Cyto minus NucArea above threshold),[1]; DMSO 2.5%,significantly reduced
same,ability of cells to spread (percentage of cells with Cyto minus NucArea above threshold),[1]; DMSO 5%,significantly reduced
same,ability of cells to spread (percentage of cells with Cyto minus NucArea above threshold),[1]; DMSO at or below 1%,no effect
O=C(O)CN(CCN(CC(=O)O)CC(=O)O)CC(=O)O [EDTA],cell adherence,"[1]; PC-3 cells, 50 mM",inhibited cell adherence
same,cell spreading,"[1]; PC-3 cells, 50 mM",inhibited cell spreading
CN([C@@H](Cc1ccc(OS(=O)(=O)c2cccc3cnccc23)cc1)C(=O)N1CCN(c2ccccc2)CC1)S(=O)(=O)c1cccc2cnccc12 [KN-62],inhibition of cell spreading,[2],ineffective
same,inhibition of cell movement (motility),[3],ineffective
C=C1[C@@H](C)[C@H]2[C@H](Cc3ccccc3)NC(=O)[C@]23[C@H](OC(C)=O)/C=C/[C@@](C)(O)C(=O)[C@@H](C)C/C=C/[C@H]3[C@@H]1O [cytochalasin D],binding of cells to the substrate,[1]; cell line not given,did not affect binding of cells to the substrate
same,spreading on various substrates,[1]; cell line not given,prevented their spreading
same,cells prevented from spreading,"[2]; 0.5 μM, collagen I coated substrate, 3 hours",80%
same,adhesion to the substrate (number of cells that remain attached),[2]; 3 hour incubation,no effect
same,cells permitted to move,"[3]; 0.5 μM, movement measured at 18 hours after plating",70%
O=c1c(-c2ccc(O)cc2)coc2cc(O)cc(O)c12 [genistein],inhibition of cell spreading,[2],ineffective
same,inhibition of cell movement (motility),[3],ineffective
CC(=O)O[C@H]1C(=O)[C@@]2(C)[C@H]([C@H](OC(=O)c3ccccc3)[C@]3(O)C[C@H](OC(=O)[C@H](O)[C@@H](NC(=O)c4ccccc4)c4ccccc4)C(C)=C1C3(C)C)[C@]1(OC(C)=O)CO[C@@H]1C[C@@H]2O [paclitaxel],mitochondrial potential,"[4]; 10 nM paclitaxel, 26 h",minimal
same,"concentration at which area, brightness, fragmentation of the nucleus and actin polymerization reached a maximum value",[4]; 26 h,10 nM
same,all the parameters measured at increasing concentrations,[4]; >10 nM paclitaxel,approached control levels
same,concentration of maximal response in many parameters,"[5]; L-929 cells, 26 h",5 µM
same,mitochondrial potential,"[5]; L-929 cells, any of the concentrations tested (0-50 μM)",did not show a sharp decrease
same,sensitivity to low concentrations compared with SNB-19 cells,"[5]; L-929 cells, each parameter measured",less sensitive
same,nuclear morphology,"[5]; L-929 cells, increasing amounts of paclitaxel",caused nuclei to enlarge and fragment
same,"dose of maximal response, L-929 relative to SNB-19 cells",[5]; L-929 vs SNB-19,500 fold
Calphostin C,inhibition of cell spreading,[2],equally effective at inhibiting cell spreading and movement
same,inhibition of cell movement (motility),[3],equally effective at inhibiting cell spreading and movement
IL-1RA: an antagonist to the receptor for IL-1,inhibition of translocation induced by IL-1α,[6],progressively inhibiting the translocation
collagen I: matrix protein used as substrate coating,time at which cell spreading was achieved,[1]; PC-3 cells on a defined collagen I matrix,2 to 3 h
same,stimulation of spreading by matrix protein,[2],maximally stimulated both movement and spreading
same,completeness of cell spreading on matrix protein,[2]; 3 hours,complete by 3 hours
same,stimulation of movement by matrix protein,[3],maximally stimulated both movement and spreading
fibronectin,stimulation of spreading by matrix protein,[2],maximally stimulated spreading
same,completeness of cell spreading on matrix protein,[2]; 3 hours,incomplete
same,stimulation of movement by matrix protein,[3],minimally stimulated movement
laminin,stimulation of spreading by matrix protein,[2],minimally stimulating spreading
same,completeness of cell spreading on matrix protein,[2]; 3 hours,complete by 3 hours
same,stimulation of movement by matrix protein,[3],maximally stimulated movement

# Reference: patent US6716588B2, “System for cell-based screening” (Cellomics, Inc., priority 1999, dated 2004)
